Calls of active or inactive are those of the source. How the calls were made is not given here.
Test system: CCRIS mutagenicity, Ames/micronucleus/aberration tests
Assay: CCRIS mutagenicity studies
[1] = Test System: AMES SALMONELLA TYPHIMURIUM, Strain/Indicator: TA98, Metabolic Activation: NONE, Method: STANDARD PLATE
[2] = Test System: AMES SALMONELLA TYPHIMURIUM, Strain/Indicator: TA98, Metabolic Activation: RAT, LIVER, S-9, AROCLOR 1254, Method: STANDARD PLATE
[3] = Test System: AMES SALMONELLA TYPHIMURIUM, Strain/Indicator: TA100, Metabolic Activation: NONE, Method: STANDARD PLATE
[4] = Test System: AMES SALMONELLA TYPHIMURIUM, Strain/Indicator: TA1538, Metabolic Activation: NONE, Method: STANDARD PLATE
[5] = Test System: AMES SALMONELLA TYPHIMURIUM, Strain/Indicator: TA1538, Metabolic Activation: RAT, LIVER, S-9, AROCLOR 1254, Method: STANDARD PLATE

Structure (SMILES): O=C(O)CNCP(=O)(O)O
- mutagenic call (End Point: IN VITRO MICRONUCLEUS, Test System: BOVINE LYMPHOCYTES, Metabolic Activation: NONE): inactive; negative
- mutagenic call (End Point: IN VIVO CHROMOSOMAL ABERRATIONS, Test System: BONE MARROW ERYTHROCYTES, Species: RABBIT, Strain/Sex: NEW ZEALAND/MALE, Route: DRINKING WATER): active; positive (structural changes and ploidy)
- mutagenic call (End Point: IN VIVO MICRONUCLEUS, Test System: BONE MARROW POLYCHROMATIC ERYTHROCYTES, Species: MOUSE, Strain/Sex: SWISS/MALE, FEMALE, Route: IP 2X IN AQUEOUS SUSPENSION WITHIN 24 HR): inactive; negative
- mutagenic call (End Point: In vitro chromosomal aberrations, Test System: Bovine peripheral lymphocytes, Metabolic Activation: None): inactive; negative
- mutagenic call (End Point: In vivo micronucleus, Test System: Bone marrow erythrocytes, Species: Mouse, Strain/Sex: Balb C/Male, female, Route: Intraperitoneal injection): active; positive (highest dose only)
- mutagenic call (Test System: AMES SALMONELLA TYPHIMURIUM, Strain/Indicator: TA97, Metabolic Activation: HAMSTER, LIVER, S-9, AROCLOR 1254 (10%), Method: PREINCUBATION): inactive; negative
- mutagenic call (Test System: AMES SALMONELLA TYPHIMURIUM, Strain/Indicator: TA97, Metabolic Activation: HAMSTER, LIVER, S-9, AROCLOR 1254 (30%), Method: PREINCUBATION): inactive; negative
- mutagenic call (Test System: AMES SALMONELLA TYPHIMURIUM, Strain/Indicator: TA97, Metabolic Activation: NONE, Method: PREINCUBATION): inactive; negative
- mutagenic call (Test System: AMES SALMONELLA TYPHIMURIUM, Strain/Indicator: TA97, Metabolic Activation: RAT, LIVER, S-9, AROCLOR 1254 (10%), Method: PREINCUBATION): inactive; negative
- mutagenic call (Test System: AMES SALMONELLA TYPHIMURIUM, Strain/Indicator: TA97, Metabolic Activation: RAT, LIVER, S-9, AROCLOR 1254 (30%), Method: PREINCUBATION): inactive; negative
- mutagenic call (Test System: AMES SALMONELLA TYPHIMURIUM, Strain/Indicator: TA98, Metabolic Activation: HAMSTER, LIVER, S-9, AROCLOR 1254 (10%), Method: PREINCUBATION): inactive; negative
- mutagenic call (Test System: AMES SALMONELLA TYPHIMURIUM, Strain/Indicator: TA98, Metabolic Activation: HAMSTER, LIVER, S-9, AROCLOR 1254 (30%), Method: PREINCUBATION): inactive; negative
- mutagenic call (Test System: AMES SALMONELLA TYPHIMURIUM, Strain/Indicator: TA98, Metabolic Activation: NONE, Method: PREINCUBATION): inactive; negative
- mutagenic call [1]: inactive; negative
- mutagenic call (Test System: AMES SALMONELLA TYPHIMURIUM, Strain/Indicator: TA98, Metabolic Activation: RAT, LIVER, S-9, AROCLOR 1254 (10%), Method: PREINCUBATION): inactive; negative
- mutagenic call (Test System: AMES SALMONELLA TYPHIMURIUM, Strain/Indicator: TA98, Metabolic Activation: RAT, LIVER, S-9, AROCLOR 1254 (30%), Method: PREINCUBATION): inactive; negative
- mutagenic call [2]: inactive; negative
- mutagenic call (Test System: AMES SALMONELLA TYPHIMURIUM, Strain/Indicator: TA98, Metabolic Activation: S-9, AROCLOR 1254, Method: STANDARD PLATE): inactive; negative
- mutagenic call (Test System: AMES SALMONELLA TYPHIMURIUM, Strain/Indicator: TA100, Metabolic Activation: HAMSTER, LIVER, S-9, AROCLOR 1254 (10%), Method: PREINCUBATION): inactive; negative
- mutagenic call (Test System: AMES SALMONELLA TYPHIMURIUM, Strain/Indicator: TA100, Metabolic Activation: HAMSTER, LIVER, S-9, AROCLOR 1254 (30%), Method: PREINCUBATION): inactive; negative
- mutagenic call (Test System: AMES SALMONELLA TYPHIMURIUM, Strain/Indicator: TA100, Metabolic Activation: NONE, Method: PREINCUBATION): inactive; negative
- mutagenic call [3]: inactive; negative
- mutagenic call (Test System: AMES SALMONELLA TYPHIMURIUM, Strain/Indicator: TA100, Metabolic Activation: RAT, LIVER, S-9, AROCLOR 1254 (10%), Method: PREINCUBATION): inactive; negative
- mutagenic call (Test System: AMES SALMONELLA TYPHIMURIUM, Strain/Indicator: TA100, Metabolic Activation: RAT, LIVER, S-9, AROCLOR 1254 (30%), Method: PREINCUBATION): inactive; negative
- mutagenic call (Test System: AMES SALMONELLA TYPHIMURIUM, Strain/Indicator: TA100, Metabolic Activation: RAT, LIVER, S-9, AROCLOR 1254, Method: STANDARD PLATE): inactive; negative
- mutagenic call (Test System: AMES SALMONELLA TYPHIMURIUM, Strain/Indicator: TA100, Metabolic Activation: S-9, AROCLOR 1254, Method: STANDARD PLATE): active; positive
- mutagenic call (Test System: AMES SALMONELLA TYPHIMURIUM, Strain/Indicator: TA1535, Metabolic Activation: HAMSTER, LIVER, S-9, AROCLOR 1254 (10 OR 30%), Method: PREINCUBATION): inactive; negative
- mutagenic call (Test System: AMES SALMONELLA TYPHIMURIUM, Strain/Indicator: TA1535, Metabolic Activation: NONE, Method: PREINCUBATION): inactive; negative
- mutagenic call (Test System: AMES SALMONELLA TYPHIMURIUM, Strain/Indicator: TA1535, Metabolic Activation: NONE, Method: STANDARD PLATE): inactive; negative
- mutagenic call (Test System: AMES SALMONELLA TYPHIMURIUM, Strain/Indicator: TA1535, Metabolic Activation: RAT, LIVER, S-9, AROCLOR 1254 (10 OR 30%), Method: PREINCUBATION): inactive; negative
- mutagenic call (Test System: AMES SALMONELLA TYPHIMURIUM, Strain/Indicator: TA1535, Metabolic Activation: RAT, LIVER, S-9, AROCLOR 1254, Method: STANDARD PLATE): inactive; negative
- mutagenic call (Test System: AMES SALMONELLA TYPHIMURIUM, Strain/Indicator: TA1537, Metabolic Activation: NONE, Method: STANDARD PLATE): inactive; negative
- mutagenic call (Test System: AMES SALMONELLA TYPHIMURIUM, Strain/Indicator: TA1537, Metabolic Activation: RAT, LIVER, S-9, AROCLOR 1254, Method: STANDARD PLATE): inactive; negative
- mutagenic call [4]: inactive; negative
- mutagenic call [5]: inactive; negative
- mutagenic call (Test System: CHO/HGPRT, Strain/Indicator: CHO-K1-BH4, Metabolic Activation: NONE, Method: PREINCUBATION): inactive; negative
- mutagenic call (Test System: CHO/HGPRT, Strain/Indicator: CHO-K1-BH4, Metabolic Activation: RAT, LIVER, S-9, AROCLOR 1254, Method: PREINCUBATION): inactive; negative
- mutagenic call (Test System: E. COLI, Strain/Indicator: WP2, Metabolic Activation: NONE, Method: STANDARD PLATE): inactive; negative
- mutagenic call (Test System: E. COLI, Strain/Indicator: WP2, Metabolic Activation: RAT, LIVER, S-9, AROCLOR 1254, Method: STANDARD PLATE): inactive; negative

Structure (SMILES): CCCOS(C)(=O)=O
- mutagenic call (End Point: IN VITRO MICRONUCLEUS, Test System: MOUSE LYMPHOMA L5178Y CELLS, Metabolic Activation: NONE): active; positive
- mutagenic call (End Point: IN VITRO MICRONUCLEUS, Test System: MOUSE LYMPHOMA L5178Y CELLS, Metabolic Activation: RAT, LIVER, S-9): inactive; negative; authors report results as weakly positive
- mutagenic call (End Point: In vitro micronucleus, Test System: Chinese Hamster Ovary (CHO-WBL) cells, Metabolic Activation: None): active; positive (p<0.01)
- mutagenic call [3]: active; positive
- mutagenic call (Test System: AMES SALMONELLA TYPHIMURIUM, Strain/Indicator: TA100, Metabolic Activation: RAT, LIVER, S-9, Method: STANDARD PLATE): active; positive

Structure (SMILES): CC(=O)N(O)c1ccc([N+](=O)[O-])cc1
- mutagenic call (Test System: AMES SALMONELLA TYPHIMURIUM, Strain/Indicator: TA98(NR), Metabolic Activation: NONE, Method: STANDARD PLATE): inactive; negative
- mutagenic call (Test System: AMES SALMONELLA TYPHIMURIUM, Strain/Indicator: TA98(NR), Metabolic Activation: RAT, LIVER, S-9, AROCLOR 1254, Method: STANDARD PLATE): inactive; negative
- mutagenic call [1]: active; positive
- mutagenic call [2]: active; positive
- mutagenic call (Test System: AMES SALMONELLA TYPHIMURIUM, Strain/Indicator: TA1538(NR), Metabolic Activation: NONE, Method: STANDARD PLATE): inactive; negative
- mutagenic call (Test System: AMES SALMONELLA TYPHIMURIUM, Strain/Indicator: TA1538(NR), Metabolic Activation: RAT, LIVER, S-9, AROCLOR 1254, Method: STANDARD PLATE): inactive; negative
- mutagenic call [4]: active; positive
- mutagenic call [5]: active; positive

— PubChem BioAssay AID1259407 (Chemical Carcinogenesis Research Information System (CCRIS), 2018)
